Laboratory results from PubChem BioAssay AID248 (DTP/NCI, 2004).
Values joined by “and” are separate entries in the source; they are usually repeats but may differ in a detail not shown here. Equal entries are not always repeated. Toxic doses and inconclusive results are not listed. Rule as the data show it: active = T/C of 150% or more; inactive = T/C below 125%.

Tested on: L1210 leukemia ip in BDF1 mice, survival T/C
Assay: NCI In Vivo Anticancer Drug Screen. Data for tumor model L1210 Leukemia (intraperitoneal) in B6D2F1 (BDF1) mice
Conditions: endpoint: mean survival time, higher = longer survival
Method in brief: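 Each compound was tested against a transplantable tumor grown in mice. The endpoint was survival, with treated animals benchmarked against vehicle controls as a simple ratio.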

[1] = dose: 50.0 mg/kg/injection, schedule: Q01DX001 (ip), vehicle: carboxymethylcellulose (CMC)
[2] = dose: 100.0 mg/kg/injection, schedule: Q01DX001 (ip), vehicle: carboxymethylcellulose (CMC)
[3] = dose: 100.0 mg/kg/injection, schedule: Q01DX009 (ip), vehicle: carboxymethylcellulose (CMC)
[4] = dose: 100.0 mg/kg/injection, schedule: Q04DX002 (ip), vehicle: carboxymethylcellulose (CMC)
[5] = dose: 100.0 mg/kg/injection, schedule: Q04DX003 (ip), vehicle: carboxymethylcellulose (CMC)
[6] = dose: 200.0 mg/kg/injection, schedule: Q01DX001 (ip), vehicle: carboxymethylcellulose (CMC)
[7] = dose: 200.0 mg/kg/injection, schedule: Q04DX002 (ip), vehicle: carboxymethylcellulose (CMC)
[8] = dose: 200.0 mg/kg/injection, schedule: Q04DX003 (ip), vehicle: carboxymethylcellulose (CMC)
[9] = dose: 400.0 mg/kg/injection, schedule: Q01DX001 (ip), vehicle: carboxymethylcellulose (CMC)
[10] = dose: 100.0 mg/kg/injection, schedule: Q04DX003 (ip), vehicle: Klucel (hydroxypropylcellulose) (HPC)
[11] = dose: 200.0 mg/kg/injection, schedule: Q04DX003 (ip), vehicle: Klucel (hydroxypropylcellulose) (HPC)
[12] = dose: 400.0 mg/kg/injection, schedule: Q04DX003 (ip), vehicle: Klucel (hydroxypropylcellulose) (HPC)
[13] = dose: 100.0 mg/kg/injection, schedule: Q01DX009 (ip), vehicle: saline with Tween-80
[14] = dose: 200.0 mg/kg/injection, schedule: Q01DX009 (ip), vehicle: saline with Tween-80
[15] = dose: 100.0 mg/kg/injection, schedule: Q04DX003 (ip), vehicle: saline
[16] = dose: 200.0 mg/kg/injection, schedule: Q04DX003 (ip), vehicle: saline
[17] = dose: 400.0 mg/kg/injection, schedule: Q04DX003 (ip), vehicle: saline
[18] = dose: 50.0 mg/kg/injection, schedule: Q01DX001 (ip), vehicle: saline
[19] = dose: 100.0 mg/kg/injection, schedule: Q01DX001 (ip), vehicle: saline
[20] = dose: 200.0 mg/kg/injection, schedule: Q01DX001 (ip), vehicle: saline
[21] = dose: 400.0 mg/kg/injection, schedule: Q01DX001 (ip), vehicle: saline

Measured: T/C

CCCCCC(=O)N1CCCCC1C (stereo not given)
inactive: [1] 97 % of control | dose: 50.0 mg/kg/injection, schedule: Q01DX009 (ip), vehicle: carboxymethylcellulose (CMC) 95 % of control and 97 % of control | dose: 50.0 mg/kg/injection, schedule: Q04DX002 (ip), vehicle: carboxymethylcellulose (CMC) 96 % of control and 98 % of control | dose: 50.0 mg/kg/injection, schedule: Q04DX003 (ip), vehicle: carboxymethylcellulose (CMC) 98 % of control | [2] 103 % of control | [3] 96 % of control and 98 % of control | [4] 97 % of control and 109 % of control and 92 % of control | [5] 93 % of control | [6] 90 % of control | [7] 100 % of control and 86 % of control | [8] 95 % of control

COc1cc(C)c(C(=O)c2ccccc2N)cc1OC
inactive: [2] 105 % of control | [6] 118 % of control | [9] 96 % of control

CCCCCCCCC(C)C
inactive: dose: 100.0 mg/kg/injection, schedule: Q04DX002 (ip), vehicle: saline with Tween-80 100 % of control | dose: 200.0 mg/kg/injection, schedule: Q04DX002 (ip), vehicle: saline with Tween-80 97 % of control

O=C(Nc1ccc(CC2=NCCN2)cc1)c1ccc(C(=O)Nc2ccc(CC3=NCCN3)cc2)cc1
inactive: dose: 0.5 mg/kg/injection, schedule: Q01DX Z (ip), vehicle: saline 102 % of control | dose: 1.0 mg/kg/injection, schedule: Q01DX Z (ip), vehicle: saline 104 % of control | dose: 2.0 mg/kg/injection, schedule: Q01DX Z (ip), vehicle: saline 91 % of control | dose: 4.0 mg/kg/injection, schedule: Q01DX Z (ip), vehicle: saline 104 % of control | dose: 8.0 mg/kg/injection, schedule: Q01DX Z (ip), vehicle: saline 104 % of control

COC1(c2ccccc2)OC(Cc2ccccc2)=NC1(C)C (stereo not given)
inactive: [10] 94 % of control | [11] 94 % of control | [12] 94 % of control

O=[N+]([O-])c1ccc(Sc2ccc([N+](=O)[O-])cc2)cc1
inactive: dose: 50.0 mg/kg/injection, schedule: Q01DX009 (ip), vehicle: saline with Tween-80 92 % of control | [13] 91 % of control | [14] 89 % of control

O=C(c1ccccc1Br)N1CCN=C(c2ccccc2)C=C1c1ccccc1
inactive: [15] 93 % of control | [16] 94 % of control | [17] 100 % of control

O=NN1CCOCC1
inactive: [18] 104 % of control | [19] 93 % of control | [20] 104 % of control

C=CCN(CC=C)/N=N\c1nc[nH]c1C(=O)OC
inactive: dose: 100.0 mg/kg/injection, schedule: Q01DX001 (ip), vehicle: saline with Tween-80 100 % of control | [13] 109 % of control | dose: 100.0 mg/kg/injection, schedule: Q04DX003 (ip), vehicle: saline with Tween-80 98 % of control | dose: 200.0 mg/kg/injection, schedule: Q01DX001 (ip), vehicle: saline with Tween-80 102 % of control | [14] 95 % of control | dose: 200.0 mg/kg/injection, schedule: Q04DX003 (ip), vehicle: saline with Tween-80 98 % of control | dose: 400.0 mg/kg/injection, schedule: Q01DX001 (ip), vehicle: saline with Tween-80 98 % of control | dose: 400.0 mg/kg/injection, schedule: Q01DX009 (ip), vehicle: saline with Tween-80 93 % of control | dose: 400.0 mg/kg/injection, schedule: Q04DX003 (ip), vehicle: saline with Tween-80 96 % of control

NC(=O)CN(CC(N)=O)CC(N)=O
inactive: [19] 102 % of control | [20] 98 % of control | [21] 102 % of control

CC(C)CCCC(C)C1CCC2C3CC(=O)NC4CC(Br)CCC4(C)C3CCC12C (stereo not given)
inactive: dose: 100.0 mg/kg/injection, schedule: Q04DX003 (ip), vehicle: acetone 93 % of control | dose: 200.0 mg/kg/injection, schedule: Q04DX003 (ip), vehicle: acetone 102 % of control | dose: 400.0 mg/kg/injection, schedule: Q04DX003 (ip), vehicle: acetone 98 % of control

CC(O)CN1CC(C)N(CC(C)O)CC1C (stereo not given)
inactive: dose: 100.0 mg/kg/injection, schedule: Q01DX009 (ip), vehicle: saline 104 % of control | [15] 100 % of control | dose: 200.0 mg/kg/injection, schedule: Q01DX009 (ip), vehicle: saline 102 % of control | [16] 86 % of control | dose: 400.0 mg/kg/injection, schedule: Q01DX009 (ip), vehicle: saline 98 % of control | [17] 88 % of control

O=C(c1cccc([N+](=O)[O-])c1)c1[nH]c2sc3c(c2c1O)CCCC3
inactive: dose: 6.25 mg/kg/injection, schedule: Q01DX009 (ip), vehicle: Klucel (hydroxypropylcellulose) (HPC) 92 % of control | dose: 12.5 mg/kg/injection, schedule: Q01DX009 (ip), vehicle: Klucel (hydroxypropylcellulose) (HPC) 94 % of control and 91 % of control | dose: 25.0 mg/kg/injection, schedule: Q01DX009 (ip), vehicle: Klucel (hydroxypropylcellulose) (HPC) 89 % of control

CCCCC(CC)C(=O)C(CCN(C)C)(c1ccccc1)c1ccccn1 (stereo not given)
inactive: dose: 44.0 mg/kg/injection, schedule: Q01DX Z (ip), vehicle: methylcellulose (MC) 101 % of control | dose: 66.0 mg/kg/injection, schedule: Q01DX Z (ip), vehicle: methylcellulose (MC) 97 % of control | dose: 100.0 mg/kg/injection, schedule: Q01DX Z (ip), vehicle: methylcellulose (MC) 96 % of control

C=CC1C(OCC)(OCC)CS1(=O)=O (stereo not given)
inactive: [19] 93 % of control | dose: 100.0 mg/kg/injection, schedule: Q01DX009 (ip), vehicle: acetone 106 % of control | [20] 98 % of control | dose: 200.0 mg/kg/injection, schedule: Q01DX009 (ip), vehicle: acetone 100 % of control | [21] 95 % of control | dose: 400.0 mg/kg/injection, schedule: Q01DX009 (ip), vehicle: acetone 106 % of control

Cc1ccc(C(=O)Nc2ccc([N+](=O)[O-])cc2)cc1
inactive: [10] 88 % of control | [11] 100 % of control | [12] 98 % of control

CCOc1ccc(Br)cc1/C=C(\C#N)c1ccc([N+](=O)[O-])cc1
inactive: dose: 25.0 mg/kg/injection, schedule: Q01DX009 (ip), vehicle: saline with Tween-80 92 % of control

CC(=O)Oc1ccc(CCN=C(c2ccccc2)c2ccccc2)cc1OC(C)=O
inactive: [19] 107 % of control | [20] 104 % of control | [21] 100 % of control

O=C(O)c1ccc(N/N=C\c2cc(=O)[nH]c(=O)[nH]2)cc1
inactive: dose: 5.0 mg/kg/injection, schedule: Q01DX001 (ip), vehicle: saline 97 % of control | dose: 10.0 mg/kg/injection, schedule: Q01DX001 (ip), vehicle: saline 97 % of control | dose: 20.0 mg/kg/injection, schedule: Q01DX001 (ip), vehicle: saline 98 % of control | dose: 40.0 mg/kg/injection, schedule: Q01DX001 (ip), vehicle: saline 97 % of control

CC(=O)c1ccc2c(c1)sc1cc(C(C)=O)ccc12
inactive: [1] 96 % of control | [2] 100 % of control | [6] 90 % of control | [9] 90 % of control

C/C(CCCC(C)(C)C(=O)O)=N/Nc1ccc([N+](=O)[O-])cc1[N+](=O)[O-]
inactive: dose: 75.0 mg/kg/injection, schedule: Q01DX001 (ip), vehicle: other 93 % of control

C1COB(OCCNCCOB2OCCNCCO2)OCCN1
inactive: [3] 100 % of control | [4] 98 % of control and 101 % of control | [5] 100 % of control | dose: 200.0 mg/kg/injection, schedule: Q01DX009 (ip), vehicle: carboxymethylcellulose (CMC) 97 % of control and 106 % of control | [7] 95 % of control and 103 % of control | [8] 104 % of control | dose: 400.0 mg/kg/injection, schedule: Q01DX009 (ip), vehicle: carboxymethylcellulose (CMC) 100 % of control | dose: 400.0 mg/kg/injection, schedule: Q04DX002 (ip), vehicle: carboxymethylcellulose (CMC) 103 % of control and 106 % of control | dose: 400.0 mg/kg/injection, schedule: Q04DX003 (ip), vehicle: carboxymethylcellulose (CMC) 100 % of control

Nc1c2c([nH]c(=O)c1N=O)CCC2
inactive: [18] 95 % of control | [19] 93 % of control | [20] 95 % of control | [21] 104 % of control
